SMILES strings stand for the structures.

Test [1] deals with A549 cells. Kind of test: BOOM conversion: prodrug + metal resins in cell culture, cell viability, A549. The format is cell-based, human. On the procedure: Cell viabilities for each prodrug provided as a combination with palladium is presented in FIG. 3 and gold is presented in FIG. 33 in the right of each set of two bars. […] Cells were incubated in tissue culture media containing 0.1% (v/v) DMSO and: Pd^0, Au, or Pd/Au-resins (1 mg/mL, negative control); 100 μM of each prodrug (negative control); and Pd^0, Au, or Pd/Au-resins (1 mg/mL)+100 μM of each prodrug (BOOM reaction assay). Cells incubated in 0.1% (v/v) DMSO in media were used as untreated cell control.
(§1) Following 5 days treatment, cells were incubated with PrestoBlue™ Cell Viability Reagent (Life Technologies) for 60-90 min. Fluorescence intensity values were related to the untreated cells (100% cell viability). […] Cells incubated in 0.1% (v/v) DMSO in media were used as untreated cell control.
(§2) Cell viabilities for each prodrug provided as a combination with palladium is presented in FIG. 7 in the right of each set of two bars. Data for prodrug in the absence of palladium catalyst is also provided (the left bar of each set of two bars) for comparison along with negative controls (from left to right: DMSO, Pd^0 and Doxorubicin). Cells were incubated in tissue culture media containing 0.1% (v/v) DMSO and: Pd^0-resins (1 mg/mL, negative control); 1 μM of each prodrug (negative control); and Pd^0-resins (1 mg/mL)+1 μM of each prodrug (BOOM reaction assay). Cells incubated in 0.1% (v/v) DMSO in media were used as untreated cell control.
(§3) Following 5 days treatment, cells were incubated with PrestoBlue™ Cell Viability Reagent (Life Technologies) for 90 min. Fluorescence intensity values were related to the untreated cells (100% cell viability). Data are provided in FIG. 8 for cells incubated in tissue culture media containing 0.1% (v/v) DMSO and: Pd^0-resins (1 mg/mL, negative control); 0.3-3 μM of Doxorubicin prodrug for A549 and DU145 cell lines, 0.1-1 μM of Doxorubicin prodrug for T98 cell line (negative control); 0.3-3 μM of Doxorubicin for A549 and DU145 cell lines, 0.1-1 μM of Doxorubicin for T98 cell line (positive control); and Pd^0-resin (1 mg/mL)+Doxorubicin prodrug (BOOM reaction assay). Cells incubated in 0.1% (v/v) DMSO in media were used as untreated cell control.
as §2, with “21” for “7”, “panobinostat).” for “Doxorubicin).”
(§4) The toxigenic effect as a result of in situ generation of parental drug in cell culture was determined by incubating all cells in tissue culture media containing 0.1% (v/v) DMSO and a) Pd^0, Au, or Pd/Au-resin (1 mg/mL for all cells tested, negative control); b) prodrug (negative control); or c) Pd^0, Au, or Pd/Au-resin (1 mg/mL for all cells)+prodrug (reaction assay). Cells incubated in 0.1% (v/v) DMSO in media was used as an untreated cell reference standard (100% viability). A PrestoBlue® cell viability assay as described above was carried out and fluorescent intensities compared to the untreated cell control.
(§5) A dose response study was performed for each cell line keeping the quantity of Pd^0 resin constant (0.8 mg/mL for U87G and 1 mg/mL for the rest of cell lines). All cells were plated in Dulbecco's Modified Eagle Media (DMEM) supplemented with serum (10% FBS) and L-glutamine (2 mM). […]

In test [2] the test system is T98 cells. Kind of test: BOOM conversion: prodrug + Pd0-resins in cell culture, cell viability, T98. The format is cell-based, human. As to conditions: Homo sapiens, 120 h, prodrug in combination with Pd0-resins 1 mg/mL, 5 days, read-out: EC50, prodrug + Pd-resins. On the procedure: as §1, §2, §3, §4, §5
In test [3] the test system is A549 cells. As to the kind of experiment: Prodrug safety dose-response cell viability (PrestoBlue), A549. It is filed as cell-based. As to conditions: Homo sapiens, 120 h, 5 days, no catalyst. On the procedure:
(§6) These cell lines were selected as these are primary malignancies against which the parental drugs are currently prescribed.
(§7) The toxicities of each active agent and prodrugs were compared by performing dose-response studies. […] Cell viability was analysed by fluoresce intensity (λex=540 nm; λem=590 nm) after 60-90 min incubation with PrestoBlue™ Reagent (Life Technologies).

Test [4] deals with U87G cells. Kind of test: Prodrug safety dose-response cell viability (PrestoBlue), U87G. It is filed as cell-based, human. The conditions noted are these: Homo sapiens, 120 h; U87G cells, 5 days, no catalyst; read-out: EC50 (cell viability). On the procedure: as §6, §7
Test [5] relates to T98 cells. Kind of test: Prodrug safety dose-response cell viability (PrestoBlue), T98. The format is cell-based. The conditions noted are these: Homo sapiens, 120 h, 5 days, no catalyst. On the procedure:
as §6, §7

Take `C#CCOc1ccc(CONC(=O)CCCCCCC(=O)Nc2ccccc2)cc1` [POB-Vor, Propargyloxybenzyl-Vorinostat]: the “toxigenic effect of prodrug + Au resins” value in test [1] (Au resins 1 mg/mL, prodrug 100 μM) was “strong toxigenic effect”. For the same compound, the EC50 is 10.5 µM in test [1] (Homo sapiens, 120 h, prodrug in combination with Pd0-resins 1 mg/mL, 5 days, read-out: EC50, prodrug + Pd-resins); 16.8 µM in test [2]; above 500 µM in test [3]; above 500 µM in test [4]; above 500 µM in test [5]. In addition, in test [1] (Pd0-resin 1 mg/mL, 100 μM Vorinostat prodrugs, 1 μM Doxorubicin prodrugs, 0.3 μM Panobinostat prodrug), the “toxigenic effect of prodrug + Pd0 resins” value is on record as “strong toxigenic effect”. In test [1] (Pd/Au resins 1 mg/mL, prodrug 100 μM), the “toxigenic effect of prodrug + Pd/Au resins” value is “strong toxigenic effect”.
